Measurements as given in paper PMC11879692, “PDE4 inhibitor rolipram represses hedgehog signaling via ubiquitin-mediated proteolysis of GLI transcription factors to regress breast cancer” (The Journal of Biological Chemistry, 2025).

Assays:
MDA-MB-231 cells [1] = assay: Wound healing assay; format: cell-based, human
Procedure: (§1) Cells were seeded and allowed to attain a 2D monolayer of cells. […] The percentage of open area was evaluated using Tscratch software (CSElab, Koumoutsakos group at ETH Zurich, https://github.com/cselab/TScratch) (RRID: SCR_014282).

MCF-7 cells [2] = assay: Wound healing assay; format: cell-based, human
Procedure: as §1

MDA-MB-231 cells [3] = assay: MTT cell viability assay; format: cell-based; conditions: Homo sapiens, 24 h, read-out: concentration for 50% growth inhibition (IC50)
Procedure: (§2) To determine the concentration of rolipram required for 50% growth inhibition (IC50) of MCF-7 and MDA-MB-231 cells, MTT (3-[4,5-dimethylthiazol-2-yl]-2,5 diphenyl tetrazolium bromide) assay, which relies on the reduction of MTT to form purple-colored formazan crystals by mitochondrial dehydrogenases, was performed ([27]). Cells were seeded in a 96-well plate at a density of 3 × 10^3 cells/well and treated with increasing concentrations of rolipram ranging from 1 to 80 μM. MTT (G Biosciences; catalog no.: RC1130) was added after 24 h of treatment, formazan crystals were dissolved in 100 μl of DMSO, and absorbance measured at 595 nm using the BioRad iMark Microplate Reader (RRID: SCR_023799). The percentage of metabolically active cells was calculated with respect to untreated control cells, negating the blank reading. Graphs were plotted for the percentages of viable cells against the concentrations of rolipram to obtain linear trend-line equations, which were used to derive the IC50 concentration of rolipram for each cell lines. The IC50 doses were used for all subsequent experiments ([28]).

MCF-7 cells [4] = assay: MTT cell viability assay; format: cell-based; conditions: Homo sapiens, MCF7, 24 h, read-out: concentration for 50% growth inhibition (IC50)
Procedure: as §2

[5] = test system: 4T1 mice breast carcinoma cells, mammary fat pad tumor; assay: Solid tumor in mice, tumor weight and volume; format: in vivo, BALB/c mice; conditions: vs untreated tumor
Procedure: (§3) Solid tumors were developed in BALB/c mice (n = 3) except the control group (group I) by injecting 1 × 10^4 viable 4T1 (RRID: CVCL_0125) mice breast carcinoma cells (resuspended in 50 μl of PBS) into the inguinal fourth mammary fat pad, and the tumor was allowed to develop for 14 days ([37], [38]). Mice were randomly divided into three groups, viz., untreated tumor (group II), mice treated intraperitoneally with 1 mg//kg bodyweight of rolipram (group III), and mice receiving 5 mg/kg bodyweight of rolipram, intraperitoneally (group IV) ([39], [40]). After 14 days, the mice were sacrificed. Lung, kidney, liver, serum, and the tumors were collected for further experiments ([15]).
Weight of mammary fat pad of mice from group I and weight of tumors from groups II, III, and IV were measured using digital fine balance. Width and length of the tumors obtained from mice of groups II, III, and IV were measured using digital Vernier caliper. The volume was measured by the formula V = half × (W × W × L), where V is the volume, W is the width, and L is the length of the tumors ([15], [41]).

[6] = Bodyweight of tumor-bearing mice; format: in vivo, BALB/c mice; conditions: intraperitoneally
Procedure: as §3

MDA-MB-231 cells [7] = assay: Western blot analysis of protein expression; format: cell-based, human
Procedure: (§4) After treatment of cells with rolipram, proteins were extracted from cells by lysing the cells with radioimmunoprecipitation assay buffer, comprising of 150 mM NaCl, 1% Triton X-100, 0.5% sodium deoxycholate, and 0.1% SDS. Equal amount of proteins (40 μg) were resolved using SDS-PAGE before transferring onto nitrocellulose membrane (Immobilon-NC Transfer Membrane; Merck Millipore; catalog no.: HATF00010). The membranes were then incubated overnight with primary antibody at a dilution of 1:1000 at 4°C followed by incubation with secondary antibodies at a dilution of 1:5000 for 2 h at room temperature. Immune detection was performed using femtoLUCENT PLUS-HRP (G-Biosciences; catalog no.: 786-003), and the image was obtained from the Bio-Rad ChemiDoc XRS+ system. Analysis of protein expression was carried out using Bio-Rad Image Lab software (RRID: SCR_014210) and National Institutes of Health ImageJ software ([34]) (RRID: SCR_003070). All protein expressions were normalized against β-tubulin (loading control).

MCF-7 cells [8] = assay: Western blot analysis of protein expression; format: cell-based, human
Procedure: as §4

[9] = 1 mg/kg bodyweight i.p., 14 days of treatment
[10] = 5 mg/kg bodyweight i.p., 14 days
[11] = MDA-MB-231, IC50 dose, time course

Structure (SMILES): COc1ccc(C2CNC(=O)C2)cc1OC1CCCC1 (stereo not shown) [rolipram, Rolipram]
- percentage of open area (wound) (MDA-MB-231 cells [1]; MDA-MB-231, IC50 dose, 24 and 48 h, untreated 33% to 20% and 12%): no significant change
- cell migration capability (MDA-MB-231 cells [1]; MDA-MB-231, in the presence of TAK-243 (0.1 μM)): failed to retard the cell migration capability
- percentage of open area (wound) (MCF-7 cells [2]; MCF-7, IC50 dose, up to 48 h, untreated 45% to 34% (24 h) and 22% (48 h)): failed to significantly reduce the percentage of open area
- cell migration capability (MCF-7 cells [2]; MCF-7, in the presence of TAK-243 (0.1 μM)): failed to retard the cell migration capability
- IC50 (MDA-MB-231 cells [3]): 53 µM
- IC50 (MCF-7 cells [4]): 38 µM
- reduction of tumor volume [5, 9]: twofold
- reduction of tumor weight [5, 9]: twofold
- reduction of tumor volume [5, 10]: 2.8 fold
- reduction of tumor weight [5, 10]: 3.4 fold
- bodyweight of tumor-bearing mice ([6]; 1 mg/kg bodyweight): No significant changes
- bodyweight of tumor-bearing mice ([6]; 5 mg/kg bodyweight): No significant changes
- reduction of MMP9 expression (MDA-MB-231 cells [7]; MDA-MB-231 (TNBC cells)): twofold
- downregulation of expression of MMP2 (MDA-MB-231 cells [7]; MDA-MB-231, IC50 dose): twofold
- levels of phospho-Akt (MDA-MB-231 cells [7]; MDA-MB-231, IC50 dose): reduced
- levels of phosphorylated-GSK3β (MDA-MB-231 cells [7]; MDA-MB-231, IC50 dose): reduced levels
- level of GLI2R (MDA-MB-231 cells [7]; MDA-MB-231, IC50 dose, 48 h): decreased slightly
- level of GLI2FL (MDA-MB-231 cells [7]; [11]): significantly decreased with time
- level of GLI3R (MDA-MB-231 cells [7]; [11]): increased with time
- levels of PKA (MDA-MB-231 cells [7]; [11]): increased levels
- level of GLI1 (MDA-MB-231 cells [7]; MDA-MB-231, IC50 dose, time-dependent): reduced
- level of GLI2R (MDA-MB-231 cells [7]; MDA-MB-231, IC50 dose, up to 24 h): increased up to 24 h
- elevated expression of PTEN (MDA-MB-231 cells [7]; MDA-MB-231, IC50 dose, within 12 h): threefold
- level of E-cadherin (MDA-MB-231 cells [7]; MDA-MB-231, after 24 h): no conclusive change
- levels of vimentin (MDA-MB-231 cells [7]; MDA-MB-231, after 48 h): decrease
- levels of GLI proteins (MDA-MB-231 cells [7]; MDA-MB-231, cotreatment with H89 (10 μM), 24 h, vs control and H89 only): unaltered
- repressor forms of GLI2 and GLI3 (MDA-MB-231 cells [7]; MDA-MB-231, in combination with TAK-243 (0.1 μM), 24 h): failed to produce the repressor forms
- effects on expressions of MMPs, E-cadherin, and vimentin (MDA-MB-231 cells [7]; MDA-MB-231, in the presence of TAK-243): failed to exert any of the aforementioned effects
- reduction of MMP9 expression (MCF-7 cells [8]; MCF-7 (hormone-responsive cells), 48 h): fourfold
- downregulation of expression of MMP2 (MCF-7 cells [8]; MCF-7, IC50 dose): twofold
- levels of phospho-Akt (MCF-7 cells [8]; MCF-7, IC50 dose): reduced
- levels of phosphorylated-GSK3β (MCF-7 cells [8]; MCF-7, IC50 dose): reduced levels
- level of GLI2FL (MCF-7 cells [8]; MCF-7, IC50 dose, time course): remained unchanged
- level of GLI2R (MCF-7 cells [8]; MCF-7, IC50 dose, time course): increased with time
- level of GLI3R (MCF-7 cells [8]; MCF-7, IC50 dose, time course): increased with time
- levels of PKA (MCF-7 cells [8]; MCF-7, IC50 dose, time course): increased levels
- level of GLI1 (MCF-7 cells [8]; MCF-7, IC50 dose, time-dependent): reduced
- elevated expression of PTEN (MCF-7 cells [8]; MCF-7, IC50 dose, within 12 h): threefold
- levels of vimentin (MCF-7 cells [8]; MCF-7, after 48 h): decrease
- levels of GLI proteins (MCF-7 cells [8]; MCF-7, cotreatment with H89 (10 μM), 24 h, vs control and H89 only): unaltered
- repressor forms of GLI2 and GLI3 (MCF-7 cells [8]; MCF-7, in combination with TAK-243 (0.1 μM), 24 h): failed to produce the repressor forms
- effects on expressions of MMPs, E-cadherin, and vimentin (MCF-7 cells [8]; MCF-7, in the presence of TAK-243): failed to exert any of the aforementioned effects
- elevation of level of E-cadherin (MCF-7 cells [8]; MCF-7, within 24 h): twofold
